Laboratory results from patent US11458123B2 (Arvinas, Inc., priority 2016, dated 2022).

Tested on: tau protein
Assay: Tau protein in vitro degradation assay (Western blot, Tau-13 antibody)
Assay type: cell-based, human
Settings: SK-N-SH cells, 72 hours of incubation; for Degradation activity* (highest amount of degradation observed at any dosage; tau protein remaining) / Degradation activity (tau protein remaining; highest amount of degradation observed at any dosage): tested at 300 nM, 100 nM, 33 nM and 11 nM, Western blot, Tau-13 antibody; for Activity* (highest amount of degradation observed at any dosage, as tau protein remaining): tested at 1000 nM, 300 nM and 100 nM
In short: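 SK-N-SH cells, seeded ≥18 h beforehand, were incubated 72 h with tau PROTACs at 1000, 300 and 100 nM or at 300, 100, 33 and 11 nM. Lysates in protease-inhibitor buffer were resolved by SDS-PAGE; tau quantified by Western blot with Tau-13 antibody recognising all human tau forms.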

SMILES	Degradation activity* (highest amount of degradation observed at any dosage; tau protein remaining)	Activity* (highest amount of degradation observed at any dosage, as tau protein remaining)	further results
O=C1CCC(N2C(=O)c3cccc(NCCOCCOCCOCCOCCOc4ccc(-c5ccc6c(c5)[nH]c5ccncc56)cc4)c3C2=O)C(=O)N1 (stereo not shown) [Compound 86, 4-((14-(4-(5H-pyrido[4,3-b]indol-7-yl)phenoxy)-3,6,9,12-tetraoxatetradecyl)amino)-2-(2,6-dioxopiperidin-3-yl)isoindoline-1,3-dione]	C (>80% tau protein remaining after 72 hours of incubation with the test compound)		
Cn1c2ccncc2c2ccc(-c3ccc(O[C@H]4C[C@H](Oc5ccc(C#CCOCCOc6ccc7c(c6)C(=O)N(C6CCC(=O)NC6=O)C7=O)nc5)C4)nc3)cc21 (stereo partly shown) [Compound 179, 2-(2,6-dioxopiperidin-3-yl)-5-(2-((3-(5-((1r,3r)-3-((5-(5-methyl-5H-pyrido[4,3-b]indol-7-yl)pyridin-2-yl)oxy)cyclobutoxy)pyridin-2-yl)prop-2-yn-1-yl)oxy)ethoxy)isoindoline-1,3-dione]			Degradation activity (tau protein remaining; highest amount of degradation observed at any dosage): A (≤50% tau protein remaining after 72 hours of incubation with the test compound)
O=C1CCC(N2C(=O)c3ccc(OCC#Cc4ccc(O[C@H]5C[C@H](Oc6ccc(-c7cc8[nH]c9ccncc9c8c(F)c7F)cn6)C5)cn4)cc3C2=O)C(=O)N1 (stereo partly shown) [Compound 204, 5-((3-(5-((1r,3r)-3-((5-(8,9-difluoro-5H-pyrido[4,3-b]indol-7-yl)pyridin-2-yl)oxy)cyclobutoxy)pyridin-2-yl)prop-2-yn-1-yl)oxy)-2-(2,6-dioxopiperidin-3-yl)isoindoline-1,3-dione]			Degradation activity (tau protein remaining; highest amount of degradation observed at any dosage): C (>80% tau protein remaining after 72 hours of incubation with the test compound)
Cc1ncsc1-c1ccc(CNC(=O)[C@@H]2C[C@@H](O)CN2C(=O)[C@@H](NC(=O)COCCOCCOCCCOc2ccc3nc(-c4ccc(N(C)C)cc4)ccc3c2)C(C)(C)C)cc1 [Compound 8, (2S,4R)-1-((S)-2-(tert-butyl)-15-((2-(4-(dimethylamino)phenyl)quinolin-6-yl)oxy)-4-oxo-6,9,12-trioxa-3-azapentadecanoyl)-4-hydroxy-N-(4-(4-methylthiazol-5-yl)benzyl)pyrrolidine-2-carboxamide]		C (>80% tau protein remaining after 72 hours of incubation with the test compound)	
Cn1c2ccncc2c2ccc(-c3ccc(OCCCOc4ccc(C#CCCCCOc5ccc6c(c5)C(=O)N(C5CCC(=O)NC5=O)C6=O)cn4)nc3)cc21 (stereo not shown) [Compound 146, 2-(2,6-dioxopiperidin-3-yl)-5-((6-(6-(3-((5-(5-methyl-5H-pyrido[4,3-b]indol-7-yl)pyridin-2-yl)oxy)propoxy)pyridin-3-yl)hex-5-yn-1-yl)oxy)isoindoline-1,3-dione]	C (>80% tau protein remaining after 72 hours of incubation with the test compound)		
Cn1c2ccncc2c2ccc(-c3ccc(O[C@H]4C[C@H](OCC5(COCCCOC6CN(c7ccc8c(c7)C(=O)N(C7CCC(=O)NC7=O)C8=O)C6)COC5)C4)nc3)cc21 (stereo partly shown) [Compound 169, 2-(2,6-dioxopiperidin-3-yl)-5-(3-(3-((3-(((1r,3r)-3-((5-(5-methyl-5H-pyrido[4,3-b]indol-7-yl)pyridin-2-yl)oxy)cyclobutoxy)methyl)oxetan-3-yl)methoxy)propoxy)azetidin-1-yl)isoindoline-1,3-dione]	A (≤50% tau protein remaining after 72 hours of incubation with the test compound)		
Cn1c2ccncc2c2ccc(-c3ccc(O[C@H]4C[C@H](OCCOCCOC5CN(c6ccc7c(c6)C(=O)N(C6CCC(=O)NC6=O)C7=O)C5)C4)nc3)cc21 (stereo partly shown) [Compound 163, 2-(2,6-dioxopiperidin-3-yl)-5-(3-(2-(2-((1r,3r)-3-((5-(5-methyl-5H-pyrido[4,3-b]indol-7-yl)pyridin-2-yl)oxy)cyclobutoxy)ethoxy)ethoxy)azetidin-1-yl)isoindoline-1,3-dione]	C (>80% tau protein remaining after 72 hours of incubation with the test compound)		
Cc1ncsc1-c1ccc([C@H](C)NC(=O)[C@@H]2C[C@@H](O)CN2C(=O)[C@@H](NC(=O)COCCOCCOCCOCCN2CCN(c3ccn4c(n3)nc3ccccc34)CC2)C(C)(C)C)cc1 [Compound 16, (2S,4R)-1-((S)-17-(4-(benzo[4,5]imidazo[1,2-a]pyrimidin-2-yl)piperazin-1-yl)-2-(tert-butyl)-4-oxo-6,9,12,15-tetraoxa-3-azaheptadecanoyl)-4-hydroxy-N—((S)-1-(4-(4-methylthiazol-5-yl)phenyl)ethyl)pyrrolidine-2-carboxamide]		C (>80% tau protein remaining after 72 hours of incubation with the test compound)	
O=C1CCC(N2C(=O)c3cccc(NCCOCCOCCOCCOCCOc4ccc(-c5ccc6c(c5)[nH]c5ccncc56)cn4)c3C2=O)C(=O)N1 (stereo not shown) [Compound 4, 4-((14-((5-(5H-pyrido[4,3-b]indol-7-yl)pyridin-2-yl)oxy)-3,6,9,12-tetraoxatetradecyl)amino)-2-(2,6-dioxopiperidin-3-yl)isoindoline-1,3-dione]		A (≤50% tau protein remaining after 72 hours of incubation with the test compound)	
Cn1c2ccncc2c2ccc(-c3cnc(CCCN4CCN(CCCCCOc5ccc6c(c5)C(=O)N(C5CCC(=O)NC5=O)C6=O)CC4)c(C(F)(F)F)c3)cc21 (stereo not shown) [Compound 63, 2-(2,6-dioxopiperidin-3-yl)-5-((5-(4-(3-(5-(5-methyl-5H-pyrido[4,3-b]indol-7-yl)-3-(trifluoromethyl)pyridin-2-yl)propyl)piperazin-1-yl)pentyl)oxy)isoindoline-1,3-dione]	C (>80% tau protein remaining after 72 hours of incubation with the test compound)		
Cc1ncsc1-c1ccc(CNC(=O)[C@@H]2C[C@@H](O)CN2C(=O)[C@@H](NC(=O)COCCCCCOc2ccc3nc(-c4ccc(N(C)C)cc4)ccc3c2)C(C)(C)C)cc1 [Compound 37, (2S,4R)-1-((S)-2-(2-(5-(2-(4-(dimethylamino)phenyl)quinolin-6-yloxy)pentyloxy)acetamido)-3,3-dimethylbutanoyl)-4-hydroxy-N-(4-(4-methylthiazol-5-yl)benzyl)pyrrolidine-2-carboxamide]		C (>80% tau protein remaining after 72 hours of incubation with the test compound)	
Cn1c2ccncc2c2ccc(-c3ccc(O[C@H]4C[C@@H](Oc5ccc(C#CCOC6CN(c7ccc8c(c7)C(=O)N(C7CCC(=O)NC7=O)C8=O)C6)nc5)C4)nc3)cc21 (stereo partly shown) [Compound 159, 2-(2,6-dioxopiperidin-3-yl)-5-(3-((3-(5-((1 s,3 s)-3-((5-(5-methyl-5H-pyrido[4,3-b]indol-7-yl)pyridin-2-yl)oxy)cyclobutoxy)pyridin-2-yl)prop-2-yn-1-yl)oxy)azetidin-1-yl)isoindoline-1,3-dione]	C (>80% tau protein remaining after 72 hours of incubation with the test compound)		
O=C1CCC(N2C(=O)c3cccc(NCCOCCOCCOCC(=O)N4CCN(c5ccn6c(n5)nc5ccccc56)CC4)c3C2=O)C(=O)N1 (stereo not shown) [Compound 41, 4-((2-(2-(2-(2-(4-(benzo[4,5]imidazo[1,2-a]pyrimidin-2-yl)piperazin-1-yl)-2-oxoethoxy)ethoxy)ethoxy)ethyl)amino)-2-(2,6-dioxopiperidin-3-yl)isoindoline-1,3-dione]		C (>80% tau protein remaining after 72 hours of incubation with the test compound)	
